Measurements from ChEMBL document CHEMBL1201862, “PubChem BioAssay data set” (2004).
The source made the active and inactive calls.

Columns and labels:
[1] = biological target: Heat shock protein HSP 90-alpha (Homo sapiens, UniProt P07900); assay type: functional, organism-based
[2] = Luminescence Cell-Based Dose Confirmation HTS to Identify Activators of 5'UTR Stem-Loop Driven Alpha-Synuclein mRNA Translation in H4 Neuroglioblastoma Cells. [Related pubchem assays: 1829 (Project Summary), 1814 (Primary HTS)]; assay type: functional
[3] = Luminescence Cell-Based Dose Response HTS to Identify Activators of Luciferase Translation or Activity in H4 […] Cells. [Related pubchem assays: 1829 (Project Summary), 1814 (Primary HTS)]; assay type: functional
H4 = assay: Luminescence Cell-Based Dose Response HTS to Identify Activators of 5'UTR Stem-Loop Driven Prion Protein mRNA Translation in H4 Neuroglioblastoma Cells. [Related pubchem assays: 1829 (Project Summary), 1814 (Primary HTS)]; assay type: functional; conditions: Homo sapiens
Fatty acid synthase [4] = biological target: T1, Fatty acid synthase (Homo sapiens, UniProt P49327); assay: FAS thioesterase domain inhibitors, dose response, biochemical, endpoint fluorescence intensity, uHTS hits (AID 624327); assay type: functional;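 note: fluorescence from hydrolysis of an O-methyl fluorescein acyl ester substrate by the enzyme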
T1 sequence (P49327 whole entry, the tested form may be a part): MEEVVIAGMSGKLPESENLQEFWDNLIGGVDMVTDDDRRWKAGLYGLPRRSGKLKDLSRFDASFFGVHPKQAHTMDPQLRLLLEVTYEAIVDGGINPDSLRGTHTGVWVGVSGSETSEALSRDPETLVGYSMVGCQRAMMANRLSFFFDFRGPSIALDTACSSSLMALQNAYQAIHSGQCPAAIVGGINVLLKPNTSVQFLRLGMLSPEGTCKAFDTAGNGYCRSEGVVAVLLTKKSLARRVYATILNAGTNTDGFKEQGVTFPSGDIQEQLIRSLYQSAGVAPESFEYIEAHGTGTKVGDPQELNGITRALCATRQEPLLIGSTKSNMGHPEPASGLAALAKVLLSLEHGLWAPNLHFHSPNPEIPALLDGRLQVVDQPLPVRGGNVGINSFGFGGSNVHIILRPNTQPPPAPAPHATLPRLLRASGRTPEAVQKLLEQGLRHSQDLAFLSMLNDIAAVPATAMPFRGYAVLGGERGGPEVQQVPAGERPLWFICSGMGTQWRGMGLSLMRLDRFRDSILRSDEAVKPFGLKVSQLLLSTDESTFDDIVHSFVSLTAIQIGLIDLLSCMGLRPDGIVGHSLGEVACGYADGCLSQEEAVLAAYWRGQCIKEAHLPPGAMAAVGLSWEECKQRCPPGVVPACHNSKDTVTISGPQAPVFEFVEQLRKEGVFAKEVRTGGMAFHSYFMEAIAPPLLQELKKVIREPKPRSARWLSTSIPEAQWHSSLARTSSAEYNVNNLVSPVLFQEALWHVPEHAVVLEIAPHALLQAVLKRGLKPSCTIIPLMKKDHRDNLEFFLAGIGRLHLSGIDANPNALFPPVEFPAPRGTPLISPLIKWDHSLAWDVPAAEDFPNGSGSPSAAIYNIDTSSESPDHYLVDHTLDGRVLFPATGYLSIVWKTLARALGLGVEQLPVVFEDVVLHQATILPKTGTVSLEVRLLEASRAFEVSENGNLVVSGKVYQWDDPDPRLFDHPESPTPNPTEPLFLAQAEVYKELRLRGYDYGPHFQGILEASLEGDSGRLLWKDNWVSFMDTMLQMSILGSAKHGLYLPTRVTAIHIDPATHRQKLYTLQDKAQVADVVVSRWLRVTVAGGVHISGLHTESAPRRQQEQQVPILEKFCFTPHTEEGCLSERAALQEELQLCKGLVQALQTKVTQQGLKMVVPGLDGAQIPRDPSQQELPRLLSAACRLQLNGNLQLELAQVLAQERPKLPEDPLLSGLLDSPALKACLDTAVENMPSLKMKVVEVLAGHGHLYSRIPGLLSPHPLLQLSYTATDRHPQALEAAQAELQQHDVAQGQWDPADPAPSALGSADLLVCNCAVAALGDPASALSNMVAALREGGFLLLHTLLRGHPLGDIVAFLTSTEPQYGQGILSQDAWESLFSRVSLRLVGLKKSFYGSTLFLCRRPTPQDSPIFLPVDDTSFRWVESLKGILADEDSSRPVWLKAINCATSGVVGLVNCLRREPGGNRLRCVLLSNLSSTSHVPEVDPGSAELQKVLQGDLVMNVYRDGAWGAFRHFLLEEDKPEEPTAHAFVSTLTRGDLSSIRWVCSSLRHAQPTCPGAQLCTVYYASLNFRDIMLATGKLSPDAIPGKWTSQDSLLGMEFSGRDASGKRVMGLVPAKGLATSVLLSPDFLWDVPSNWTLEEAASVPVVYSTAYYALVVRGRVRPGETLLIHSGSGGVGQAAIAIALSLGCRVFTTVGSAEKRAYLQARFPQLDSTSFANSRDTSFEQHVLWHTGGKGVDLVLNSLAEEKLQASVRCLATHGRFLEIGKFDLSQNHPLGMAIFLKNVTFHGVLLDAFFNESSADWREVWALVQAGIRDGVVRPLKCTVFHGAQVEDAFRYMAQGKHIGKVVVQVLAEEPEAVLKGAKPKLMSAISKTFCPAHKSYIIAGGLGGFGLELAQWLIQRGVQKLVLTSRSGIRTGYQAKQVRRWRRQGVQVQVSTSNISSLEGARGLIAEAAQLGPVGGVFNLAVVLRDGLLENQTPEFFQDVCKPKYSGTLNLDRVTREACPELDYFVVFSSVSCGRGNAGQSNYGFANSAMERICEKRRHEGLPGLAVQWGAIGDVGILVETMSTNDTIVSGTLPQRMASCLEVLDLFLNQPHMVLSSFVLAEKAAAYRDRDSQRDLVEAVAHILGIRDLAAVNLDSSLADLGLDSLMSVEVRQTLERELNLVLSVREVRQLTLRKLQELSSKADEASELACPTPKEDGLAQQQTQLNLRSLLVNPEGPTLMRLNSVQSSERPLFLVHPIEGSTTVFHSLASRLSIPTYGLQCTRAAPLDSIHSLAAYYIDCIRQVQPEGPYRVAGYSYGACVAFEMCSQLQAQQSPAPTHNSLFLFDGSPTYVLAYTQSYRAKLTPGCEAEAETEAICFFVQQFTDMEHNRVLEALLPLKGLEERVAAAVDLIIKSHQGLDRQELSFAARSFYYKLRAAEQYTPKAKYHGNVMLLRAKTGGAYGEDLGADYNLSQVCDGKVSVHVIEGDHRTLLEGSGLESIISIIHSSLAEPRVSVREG

Fatty acid synthase [5] = biological target: T1, Fatty acid synthase; assay: FAS thioesterase domain inhibitors, dose response, biochemical, kinetic fluorescence intensity (AID 624326); assay type: functional;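 note: rate of fluorescence rise from hydrolysis of a fluorogenic O-methyl fluorescein ester substrate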
[6] = inhibitors of intracellular T. cruzi replication, confirmation, NIH3T3 host cells, beta-gal luminescence (AID 2044); assay type: functional, cell-based;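 note: intracellular parasites grown in NIH/3T3 mouse fibroblasts as host cells; luminescent beta-galactosidase reporter signal from transgenic T. cruzi replicating inside host cells; inhibitors lower the luminescence signal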
[7] = cytotoxicity toward NIH3T3 fibroblasts, dose response, counter-screen, cell-based, ATP luminescence, mouse fibroblasts (AID 2010); assay type: functional;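 note: cells exposed to compound for about 90 hours before reading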
[8] = biological target: FAD-linked sulfhydryl oxidase ALR (Homo sapiens, UniProt P55789); assay: inhibitors of human ALR sulfhydryl oxidase, dose response, biochemical, H2O2 detection, luminescence, cherry-pick (AID 493248)
FAD-linked sulfhydryl oxidase ALR, sequence (P55789 whole entry): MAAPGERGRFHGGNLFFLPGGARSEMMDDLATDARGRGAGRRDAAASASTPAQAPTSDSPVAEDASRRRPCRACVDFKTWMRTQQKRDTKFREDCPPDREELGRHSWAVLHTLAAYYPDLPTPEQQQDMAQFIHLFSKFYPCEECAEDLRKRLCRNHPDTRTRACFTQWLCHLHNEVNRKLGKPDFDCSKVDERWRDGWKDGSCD

[9] = growth suppression of PTEN-null colon cells, dose response, cell-based, HCT116 PTEN knockout (AID 1047); assay type: functional;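 note: HCT116 colon tumor cells with PTEN knocked out; cells exposed to compound for 60 hours before readout; potency for loss of cell viability measured by luminescence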
[10] = growth suppression of beta-catenin-knockout colon cells, dose response, cell-based, HCT116, human colon tumor (AID 1045); assay type: functional;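 note: HCT116 colon tumor cells with beta catenin knocked out; cells exposed to compound for 60 hours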
[11] = biological target: Luciferin 4-monooxygenase (Photinus pyralis, UniProt P08659); assay: firefly luciferase enzyme inhibitors, dose response, biochemical, luminescence (AID 1891)
Luciferin 4-monooxygenase, sequence (P08659 whole entry): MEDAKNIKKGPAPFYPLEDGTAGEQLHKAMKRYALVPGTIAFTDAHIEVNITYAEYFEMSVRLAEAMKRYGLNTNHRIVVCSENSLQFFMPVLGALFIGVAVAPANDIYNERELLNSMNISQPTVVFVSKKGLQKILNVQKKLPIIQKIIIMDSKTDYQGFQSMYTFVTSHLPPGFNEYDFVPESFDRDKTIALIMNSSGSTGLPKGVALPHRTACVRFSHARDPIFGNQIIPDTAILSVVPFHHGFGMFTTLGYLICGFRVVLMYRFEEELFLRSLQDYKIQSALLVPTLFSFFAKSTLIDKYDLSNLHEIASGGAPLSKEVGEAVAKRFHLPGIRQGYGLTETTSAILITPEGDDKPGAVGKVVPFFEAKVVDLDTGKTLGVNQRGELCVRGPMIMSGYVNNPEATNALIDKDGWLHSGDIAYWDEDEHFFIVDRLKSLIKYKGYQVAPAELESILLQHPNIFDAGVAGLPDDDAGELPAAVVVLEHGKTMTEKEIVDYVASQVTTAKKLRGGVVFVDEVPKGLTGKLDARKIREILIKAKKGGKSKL

[12] = Luminescence Cell-Based Dose Confirmation HTS to Identify Inhibitors of Platelet Dense Granule Release. [Related pubchem assays: 1663 (Primary HTS), 1678 (Summary of Project)]; assay type: functional
BJ [13] = assay: cytotoxicity toward BJ-TERT fibroblasts, dose response, cell-based, RAS-independent, luminescence (AID 1933); assay type: functional; conditions: Homo sapiens
BJ [14] = assay: cells; assay type: functional, cell-based; conditions: Homo sapiens
BJ [15] = assay: cytotoxicity toward BJ-TERT-LT-ST fibroblasts, dose response, cell-based, RAS-independent, luminescence (AID 1935); assay type: functional; conditions: Homo sapiens;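 note: BJ fibroblasts immortalized with TERT plus LT and ST oncogenes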
[16] = cytotoxicity toward DRD oncogenic fibroblasts, dose response, cell-based, non-viral oncogenic, luminescence (AID 1934); assay type: functional; conditions: Homo sapiens
[17] = NIH-3T3 fibroblast cytotoxicity, dose response, cytotoxicity control, cell-based, fluorescence, Alamar Blue, secondary assay (AID 2327); assay type: functional;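 note: NIH-3T3 mouse fibroblasts cultured with fluconazole at 8 µg/mL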
Cytochrome P450 2C19 = Cytochrome P450 2C19 (Homo sapiens, UniProt P33261); assay: Cytochrome panel assay with activity outcomes. Panel member name: p450-cyp2c19 Compounds with AC50 equal or less than 10 uM are considered active; assay type: functional; conditions: read-out: AC50
Cytochrome P450 2C19, sequence (P33261 whole entry): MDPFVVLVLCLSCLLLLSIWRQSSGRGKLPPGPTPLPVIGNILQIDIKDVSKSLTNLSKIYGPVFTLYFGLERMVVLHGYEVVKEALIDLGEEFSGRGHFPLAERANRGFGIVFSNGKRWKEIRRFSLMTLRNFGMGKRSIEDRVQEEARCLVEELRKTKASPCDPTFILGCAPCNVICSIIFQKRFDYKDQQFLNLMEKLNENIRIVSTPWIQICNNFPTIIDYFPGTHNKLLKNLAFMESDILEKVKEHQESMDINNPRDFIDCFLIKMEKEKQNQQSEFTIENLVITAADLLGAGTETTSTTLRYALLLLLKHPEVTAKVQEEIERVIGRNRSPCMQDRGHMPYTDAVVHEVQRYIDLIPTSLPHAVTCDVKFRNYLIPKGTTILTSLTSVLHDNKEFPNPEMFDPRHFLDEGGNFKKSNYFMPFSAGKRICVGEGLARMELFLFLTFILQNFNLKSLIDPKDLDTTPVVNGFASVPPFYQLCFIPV

Cytochrome P450 1A2 = biological target: T2, Cytochrome P450 1A2 (Homo sapiens, UniProt P05177);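 note: PubChem cytochrome P450 panel assay, CYP1A2 panel member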
T2 sequence (P05177 whole entry): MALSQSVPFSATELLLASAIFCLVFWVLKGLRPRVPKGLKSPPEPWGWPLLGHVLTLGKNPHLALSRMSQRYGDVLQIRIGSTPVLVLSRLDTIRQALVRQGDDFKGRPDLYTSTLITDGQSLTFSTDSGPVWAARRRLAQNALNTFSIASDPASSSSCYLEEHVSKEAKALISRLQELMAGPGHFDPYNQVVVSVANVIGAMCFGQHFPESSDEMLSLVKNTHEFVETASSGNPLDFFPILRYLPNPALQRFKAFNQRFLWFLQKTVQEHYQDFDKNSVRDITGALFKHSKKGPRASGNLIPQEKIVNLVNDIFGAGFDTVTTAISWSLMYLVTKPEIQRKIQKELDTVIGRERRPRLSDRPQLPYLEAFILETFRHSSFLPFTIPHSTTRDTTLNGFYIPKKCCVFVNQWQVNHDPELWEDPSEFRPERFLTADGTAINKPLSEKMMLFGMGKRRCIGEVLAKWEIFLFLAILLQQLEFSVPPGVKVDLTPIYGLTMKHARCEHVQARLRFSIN

Cytochrome P450 2C9 = Cytochrome P450 2C9 (Homo sapiens, UniProt P11712)
Cytochrome P450 2C9, sequence (P11712 whole entry): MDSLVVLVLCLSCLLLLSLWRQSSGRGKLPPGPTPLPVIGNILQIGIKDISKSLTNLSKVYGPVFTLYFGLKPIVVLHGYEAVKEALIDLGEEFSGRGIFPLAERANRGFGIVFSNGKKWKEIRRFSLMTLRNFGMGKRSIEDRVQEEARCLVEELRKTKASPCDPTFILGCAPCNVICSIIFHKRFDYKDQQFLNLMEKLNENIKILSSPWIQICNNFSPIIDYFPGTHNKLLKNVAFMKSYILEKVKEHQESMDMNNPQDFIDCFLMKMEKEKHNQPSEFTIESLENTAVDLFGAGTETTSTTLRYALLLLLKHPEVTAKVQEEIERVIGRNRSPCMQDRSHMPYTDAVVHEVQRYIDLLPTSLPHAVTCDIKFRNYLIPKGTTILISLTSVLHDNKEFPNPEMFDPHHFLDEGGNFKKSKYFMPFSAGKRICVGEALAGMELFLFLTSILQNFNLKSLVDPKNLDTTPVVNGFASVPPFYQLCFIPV

Cytochrome P450 3A4 = Cytochrome P450 3A4 (Homo sapiens, UniProt P08684);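 note: CYP3A4 tested as one member of a cytochrome P450 panel screen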
Cytochrome P450 3A4, sequence (P08684 whole entry): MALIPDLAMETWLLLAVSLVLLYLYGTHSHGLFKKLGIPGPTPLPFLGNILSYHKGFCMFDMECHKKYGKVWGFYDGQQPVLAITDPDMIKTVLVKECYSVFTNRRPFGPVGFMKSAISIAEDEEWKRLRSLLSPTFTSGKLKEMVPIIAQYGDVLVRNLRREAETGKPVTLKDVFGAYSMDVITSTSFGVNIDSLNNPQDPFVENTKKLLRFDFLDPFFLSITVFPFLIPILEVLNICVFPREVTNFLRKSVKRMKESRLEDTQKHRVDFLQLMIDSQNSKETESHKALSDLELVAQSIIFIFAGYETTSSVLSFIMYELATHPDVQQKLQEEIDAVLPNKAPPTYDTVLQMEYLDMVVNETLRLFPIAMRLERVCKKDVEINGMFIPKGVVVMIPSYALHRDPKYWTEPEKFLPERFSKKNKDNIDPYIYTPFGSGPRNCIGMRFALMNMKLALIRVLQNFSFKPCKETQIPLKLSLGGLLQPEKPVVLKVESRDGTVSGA

In the case of Cc1nn(-c2ccc([N+](=O)[O-])cc2)c(O)c1/C=N/CCN1CCN(C(=O)c2ccccc2F)CC1, the AC50 [1] is reported as 5.72 µM (active).
In the case of Cc1nc2ccccc2[nH]c(=O)c1=NNc1ccccc1, the EC50 [2] is reported as 24.1 µM (active), the EC50 [3] is reported as > 120 µM (not active) and the EC50 (H4) is reported as 19 µM (active).
For CC(NC(=O)c1ccc([N+](=O)[O-])cc1Cl)C1CC2CCC1C2 (stereo not drawn), the IC50 (Fatty acid synthase [4]) was 9.39 µM (active) and the IC50 (Fatty acid synthase [5]) was 11.1 µM (active).
With O=C(NCC(c1cccnc1)N1CCN(c2ccccc2)CC1)c1ccco1 (stereo not drawn) the EC50 [6] was 0.998 µM (active), the EC50 [7] was > 60 µM (not active) and the AC50 [8] was 3.08 µM (active).
For COc1ccc(N2CCN(C(CNS(C)(=O)=O)c3ccco3)CC2)cc1 (stereo not drawn), the AC50 [8] was 4.67 µM (active).
In the case of COc1ccc(C)cc1C(=O)CCC(=O)Nc1ccccc1N1CCOCC1, the EC50 [9] is reported as 7.32 µM (active) and the EC50 [10] is reported as 5.33 µM (active).
For O=S(=O)(c1ccc(-c2csc(-c3cccnc3)n2)cc1)N1CCOCC1, the IC50 (Fatty acid synthase [5]) was 4.92 µM (active).
For CCN(CC)c1ccc(NC(=O)c2nc3nc(C)cc(C(F)F)n3n2)cc1, the AC50 [8] was 1.51 µM (active).
With COc1ccc2c(c1)NP(=S)(Oc1ccccc1)N2 (stereo not drawn) the AC50 [8] was 2.02 µM (active).
With O=C(OCC(=O)N1CCN(C(=O)c2ccco2)CC1)c1cc(-c2ccccc2)nc2ccccc12 the AC50 [1] was 4.24 µM (active).
In the case of CCOC(=O)c1ccc(Nc2nnc(C)c3ccccc23)cc1, the EC50 [2] is reported as 14.4 µM (active), the EC50 [3] is reported as 18.6 µM (active) and the EC50 (H4) is reported as 16.9 µM (active).
In the case of O=C(Nc1ccc(C(F)(F)F)cc1)c1cccc(-n2cnnn2)c1, the IC50 (Fatty acid synthase [4]) is reported as 11.1 µM (active) and the IC50 (Fatty acid synthase [5]) is reported as 5.97 µM (active).
With CCN1C/C(=C\c2cccc([N+](=O)[O-])c2)C(=O)/C(=C/c2cccc([N+](=O)[O-])c2)C1 the EC50 [9] was 0.117 µM (active), the EC50 [10] was 0.187 µM (active) and the AC50 [1] was 8.11 µM (active).
In the case of COc1ccc([N+](=O)[O-])cc1NC(=O)COC(=O)/C=C/c1ccco1, the IC50 (Fatty acid synthase [4]) is reported as 5.11 µM (active) and the IC50 (Fatty acid synthase [5]) is reported as 8.49 µM (active).
In the case of Fc1cc(Br)ccc1N=C(S)NCCc1ccccc1, the EC50 [2] is reported as 15.9 µM (active), the EC50 [3] is reported as 21.3 µM (active) and the EC50 (H4) is reported as 27.5 µM (active).
With COc1cccc(C(=O)Nc2ccccc2N2CCCC2)c1 the AC50 [8] was 1.54 µM (active).
With O=C(COC(=O)c1cc([N+](=O)[O-])ccc1N1CCOCC1)Nc1ccccc1OC(F)F the IC50 (Fatty acid synthase [4]) was 4.73 µM (active) and the IC50 (Fatty acid synthase [5]) was 5.1 µM (active).
With COC(=O)c1ccc(CSc2nc3cc(C)ccc3[nH]2)o1 the AC50 [8] was 2.71 µM (active).
In the case of COc1cccc(C(c2sc3ncnn3c2O)N2CCN(C(=O)c3ccco3)CC2)c1 (stereo not drawn), the EC50 [11] is reported as > 112 µM (not active) and the EC50 [12] is reported as > 112 µM (not active).
For O=C1N=C(c2ccccc2)N(c2ccccc2)C(=O)/C1=C(/O)c1ccccc1, the EC50 [2] was 19.2 µM (active), the EC50 [3] was > 120 µM (not active) and the EC50 (H4) was > 120 µM (not active).
In the case of O=C(NCc1ccc(C(F)(F)F)cc1)C1CC(c2c(Cl)cccc2Cl)=NO1 (stereo not drawn), the IC50 (Fatty acid synthase [4]) is reported as 10.3 µM (active) and the IC50 (Fatty acid synthase [5]) is reported as 9.63 µM (active).
With O=C(/C=C/c1ccc(-c2ccccc2[N+](=O)[O-])o1)c1ccccc1 the EC50 [9] was 22.5 µM (active) and the EC50 [10] was 22.3 µM (active).
For Cc1ccc(OCCC(=O)OCc2csc(CC(=O)Nc3ccccc3C)n2)cc1, the EC50 [11] was > 112 µM (not active) and the EC50 [12] was > 112 µM (not active).
For c1ccc(CSc2nnc(Cc3ccccc3)o2)cc1, the EC50 [2] was 14.4 µM (active), the EC50 [3] was 16.8 µM (active) and the EC50 (H4) was > 120 µM (not active).
With O=C(O)c1cc(O)ccc1NC(=O)c1cccc2ccccc12 the AC50 [8] was 3.41 µM (active).
For COc1cccc(NC(=O)c2ccc3c(c2)OCCO3)c1, the EC50 (BJ [13]) was 20.9 µM (active), the EC50 (BJ [14]) was 18.2 µM (active) and the EC50 [11] was 4.7 µM (active). For the same compound, the EC50 [12] was 3.52 µM (active), the EC50 (BJ [15]) was > 150 µM (inconclusive) and the EC50 [16] was 15.7 µM (active).
For OCCSc1nncn1/N=C/c1c[nH]c2ccccc12, the EC50 [11] was > 112 µM (not active) and the EC50 [12] was > 112 µM (not active).
In the case of CN(C)c1oc(-c2ccco2)nc1C#N, the EC50 [11] is reported as > 112 µM (not active) and the EC50 [12] is reported as > 112 µM (not active).
For O=C1C2CCN(CC2)C1Cc1ccc(OCCOc2ccccc2)cc1 (stereo not drawn), the EC50 [17] was 30.6 µM (active), the EC50 (BJ [13]) was > 150 µM (not active) and the EC50 (BJ [14]) was > 150 µM (not active). For the same compound, the EC50 (BJ [15]) was > 150 µM (not active) and the EC50 [16] was > 150 µM (not active).
For COC(=O)c1sc(-c2ccccc2)cc1NC(=O)c1cc(OC)cc(OC)c1, the EC50 [9] was 25.3 µM (active) and the EC50 [10] was 21.7 µM (active).
With Brc1ccc2nc(-c3cccs3)c(NCC3CCCO3)n2c1 (stereo not drawn) the EC50 [2] was 18.9 µM (active), the EC50 [3] was 9.6 µM (active) and the EC50 (H4) was 17.5 µM (active).
For O=C(Cn1cc([N+](=O)[O-])cn1)N1CCc2ccccc2C1, the IC50 (Fatty acid synthase [4]) was 11.1 µM (active) and the IC50 (Fatty acid synthase [5]) was 7.62 µM (active).
For O=S(=O)(Nc1ccc2c(c1)OCCO2)c1ccc2oc3ccccc3c2c1, the IC50 (Fatty acid synthase [4]) was 8 µM (active) and the IC50 (Fatty acid synthase [5]) was 7.42 µM (active).
For O=C(NCCC(=O)N(CCc1ccccc1)Cc1ccccc1)c1ccc([N+](=O)[O-])cc1, the IC50 (Fatty acid synthase [4]) was 8.21 µM (active) and the IC50 (Fatty acid synthase [5]) was 8.92 µM (active).
In the case of CC1CC(Nc2ccccc2)c2ccccc2N1C(=O)c1ccco1 (stereo not drawn), the AC50 [8] is reported as 21.1 µM (active).
With Cc1cc(/C=C2\SC(N)=NC2=O)c(C)n1-c1ccccc1 the EC50 [2] was 0.167 µM (active), the EC50 [3] was 0.143 µM (active) and the EC50 (H4) was > 120 µM (not active).
With CN1CCN(C(=O)c2ccc(COc3ccc(C(C)(C)C)cc3)o2)CC1 the EC50 [2] was 4.82 µM (active), the EC50 [3] was 0.148 µM (inconclusive) and the EC50 (H4) was 35.2 µM (active). For the same compound, the AC50 (Cytochrome P450 2C19) was 25.1 µM (inconclusive), the AC50 (Cytochrome P450 1A2) was 12.6 µM (inconclusive) and the AC50 (Cytochrome P450 2C9) was 31.6 µM (inconclusive).
With Cn1cc(S(=O)(=O)N2CCOCC2)cc1C(=O)Nc1cccc(Cl)c1 the EC50 [11] was > 112 µM (not active) and the EC50 [12] was > 112 µM (not active).
For N=c1n(CCO)c2ccccc2n1CCOc1ccc(Cl)cc1Cl, the EC50 [9] was 8.23 µM (active) and the EC50 [10] was 8.45 µM (active).
In the case of Cc1ccc(C(=O)NC(=S)Nc2cc(-c3nc4ccccc4s3)ccc2C)cc1, the EC50 [9] is reported as 26.9 µM (active), the EC50 [10] is reported as 22 µM (active) and the AC50 (Cytochrome P450 3A4) is reported as 10 µM (inconclusive). For the same compound, the AC50 (Cytochrome P450 2C9) was 1.78 µM (inconclusive).
In the case of O=C(Nc1ccccc1)c1cccc(N2CCCC2=O)c1, the EC50 [11] is reported as > 112 µM (not active) and the EC50 [12] is reported as 45.5 µM (active).
For CCN(CC)c1ccc(NC(=O)C2CCCN(S(=O)(=O)c3cccnc3)C2)c(C)c1 (stereo not drawn), the AC50 [8] was 2.3 µM (active).
In the case of Nc1ccc(CCc2ccc(N)cc2)cc1, the AC50 [8] is reported as 1.91 µM (active).
In the case of OC(CCCN1CCC(O)(c2ccc(Cl)cc2)CC1)c1ccc(F)cc1 (stereo not drawn) [HYDROXYHALOPERIDOL], the EC50 [9] is reported as 29.3 µM (active) and the EC50 [10] is reported as 28.4 µM (active).
